Measured values as given in the CheMixHub ionic liquid set.

Test: xn = mol fraction of the nth substance listed
Conditions: for electrical conductivity: 100 kPa; for viscosity: 101 kPa

CCCCCCCCCCCC[N+](C)(C)C.[Br-] + CCCCCCCCCCCCCCCC[n+]1ccn(C)c1.[Cl-] + O
frequency 0.002 MHz
Conditions	electrical conductivity [S/m]
303.15 K, x2 = 0, x1 = 0.0001836	0.105
313.15 K, x2 = 0, x1 = 0.0003475	0.207
323.15 K, x2 = 0, x1 = 0.0001544	0.129

C[N+]1(CCOCCOCC[N+]2(C)CCCC2)CCCC1.N#C[N-]C#N.N#C[N-]C#N + CC[n+]1ccn(C)c1.O=S(=O)([N-]S(=O)(=O)C(F)(F)F)C(F)(F)F + O=S(=O)([N-]S(=O)(=O)C(F)(F)F)C(F)(F)F.[Li+]
x1 = 0.4178, x2 = 0.4469
Conditions	electrical conductivity [S/m]
298 K	0.244
303 K	0.317
313 K	0.431
323 K	0.64
333 K	0.832
343 K	1.1

CCCCCC[n+]1ccn(C)c1.N#C[S-] + CN1CCCC1=O
viscosity [mPa·s]
Conditions	x1 = 0.001079	x1 = 0.001613	x1 = 0.002068	x1 = 0.00265	x1 = 0.003379	x1 = 0.004077	x1 = 0.004588	x1 = 0.005383
288.15 K	2.143	2.148	2.155	2.162	2.168	2.173	2.182	2.186
298.15 K	1.805	1.809	1.82	1.826	1.833	1.841	1.847	1.854
308.15 K	1.567	1.576	1.585	1.593	1.6	1.613	1.619	1.624
318.15 K	1.337	1.35	1.357	1.37	1.38	1.389	1.397	1.402
